Results reported in patent US7244557B2, “Method of screening modulators of Nod1 signaling” (Regents of the University of Michigan, priority 2003, dated 2007).

molecular target: T1, TLR2 (Homo sapiens, UniProt O60603); test: NF-κB activation assay, cells expressing TLR2 or TLR2 with TLR1 and/or TLR6; format: cell-based; settings: 1 μg/ml
T1 construct: expressed in transfected cells; host or cells: HEK293T
Procedure: A) Structure of purified PGN fraction from B. subtilis (GM3P) and synthetic PGN-related compounds used in the study. B) Structure of MDP and four copies of GlcNAc-MurNAc with attached L-Ala-γ-D-Gln (4 mer) are indicated by closed and dotted boxes, respectively. C) The ability of cells were transfected with 0.3 ng pcDNA3-NOD1-Flag, 0.1 ng pcDNA3-Nod2 (NOD2) or vector control and reporter pBxIV-luc and pEF-BOS-β-gal plasmids to activate NF-κB. D) The ability of synthetic peptides, iE-DAP and iQ-DAP to stimulate NF-κB activation in the presence of control vector (−) and plasmids encoding NOD1 wild-type, mutant NOD1 lacking LRRs (NOD1ΔLRR) and NOD2. E) The ability of iE-DAP, iQ-DAP and sBLP (1 μg/ml) to activate NF-κB.
Reagents. LPS from S. typhimurium, intact and alkaline-detoxified LPS from E. coli O55:B5 as well as purified lipid A preparations of E. coli F583, MDP, DAP and dsRNA were obtained from Sigma-Aldrich (St. Louis, Mo.). PGN from S. aureus was from Fluka-Chemie (Buchs, Germany). Palmitoyl-Cys ((RS)-2,3-di(palmitoyloxy)-propyl)-Ala-Gly) (sBLP), was obtained from Bachem (Torrance, Calif.). The tetrameric form of the disaccharide dipeptide was described previously (Inohara et al., J. Biol. Chem. 278:5509 [2003]). iE-DAP and iQ-DAP, M3P and M4P were synthesized as described (Kitaura et al., J. Med. Chem. 25:335 [1982]) with small modification. Purification of PGN from B. subtilis 168 and C. flaccumfaciens with hydrolases, Cellosyl or recombinant AtlE (amidase domain) and the fractionation and purification of reduced B. subtilis PGN digested with Cellosyl were performed as previously described (Heilman et al., Mol. Microbiol. 24:1013 [1997]; Atrih et al., J. Bact. 181:3956 [1999]). Removal of proteins and reduction of LPS fraction. E. coli O55:B5 LPS (Sigma) was treated with proteinase K at 37° C. for 12 hr to digest contaminating proteins. […] The amino acid composition of E. coli O55:B5 LPS was determined using AccQ·Tag amino acid analysis system (Waters, Milford, Mass.) after hydrolysis at 110° C. for 24 hr. […]

T1 sequence (O60603 21-784, species assumed): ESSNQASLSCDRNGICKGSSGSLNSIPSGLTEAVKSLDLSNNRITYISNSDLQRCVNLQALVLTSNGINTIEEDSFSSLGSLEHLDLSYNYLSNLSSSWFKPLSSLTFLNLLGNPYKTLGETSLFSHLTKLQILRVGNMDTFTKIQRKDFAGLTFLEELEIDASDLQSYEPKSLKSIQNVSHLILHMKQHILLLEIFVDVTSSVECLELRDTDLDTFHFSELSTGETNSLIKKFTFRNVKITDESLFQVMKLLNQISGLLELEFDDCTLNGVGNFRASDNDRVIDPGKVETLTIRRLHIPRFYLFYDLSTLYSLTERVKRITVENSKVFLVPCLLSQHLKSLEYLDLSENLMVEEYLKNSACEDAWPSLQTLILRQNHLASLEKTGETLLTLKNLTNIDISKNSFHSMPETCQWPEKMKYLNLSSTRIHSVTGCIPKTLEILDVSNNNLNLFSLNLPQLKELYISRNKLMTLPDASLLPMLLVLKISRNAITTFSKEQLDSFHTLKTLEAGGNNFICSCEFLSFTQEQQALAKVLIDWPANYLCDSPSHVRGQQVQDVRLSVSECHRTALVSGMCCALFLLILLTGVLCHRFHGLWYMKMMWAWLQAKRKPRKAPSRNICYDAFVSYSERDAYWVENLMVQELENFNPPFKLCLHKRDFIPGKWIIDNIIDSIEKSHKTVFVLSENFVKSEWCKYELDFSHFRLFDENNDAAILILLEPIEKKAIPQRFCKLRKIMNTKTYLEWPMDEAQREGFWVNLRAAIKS

Row | Substance | NF-κB activation via TLR2 or TLR2 co-expressed with TLR1 and/or TLR6
1 | γ-D-Gln-DAP [iQ-DAP] | not TLR2 or TLR2 co-expressed with TLR1 and/or TLR6
2 | γ-D-glutamy-meso-diaminopimelic acid [iE-DAP] | not TLR2 or TLR2 co-expressed with TLR1 and/or TLR6
3 | Palmitoyl-Cys ((RS)-2,3-di(palmitoyloxy)-propyl)-Ala-Gly) [synthetic lipoprotein] | activated TLR2
